Patent US20070155795A1, “MUSCARINIC AGONISTS” (ACADIA Pharmaceuticals Inc., priority 2000, published 2007)

Assays:
Assay type in all cases: cell-based
[1] = biological target: T1, m1 muscarinic receptor subtype (Homo sapiens, UniProt P11229); assay: R-SAT assay, muscarinic receptor subtype m1; conditions: transfected NIH-3T3 cells, 5 days; for m1 % Eff: relative to maximum response to carbachol; for EC50: read-out: m1 pEC50 (converted)
T1 construct: expressed in transfected cells; host or cells: NIH-3T3 (ATCC CRL 1658)
T1 sequence (P11229 1-460): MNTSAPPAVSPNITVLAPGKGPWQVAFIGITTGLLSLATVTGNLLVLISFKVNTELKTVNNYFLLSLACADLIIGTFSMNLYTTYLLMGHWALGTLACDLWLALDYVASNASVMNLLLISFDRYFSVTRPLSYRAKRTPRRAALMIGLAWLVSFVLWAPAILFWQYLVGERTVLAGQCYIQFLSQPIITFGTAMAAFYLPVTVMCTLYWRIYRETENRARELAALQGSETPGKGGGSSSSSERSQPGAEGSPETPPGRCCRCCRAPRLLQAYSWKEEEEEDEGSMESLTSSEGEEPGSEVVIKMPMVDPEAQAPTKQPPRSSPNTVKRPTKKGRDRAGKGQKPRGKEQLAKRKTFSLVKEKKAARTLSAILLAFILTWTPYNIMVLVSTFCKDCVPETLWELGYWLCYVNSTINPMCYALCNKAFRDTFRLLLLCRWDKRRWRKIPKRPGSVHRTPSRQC
Description: (§1) Transfected cells were grown in the presence of between 1 nM and 40 μM of the test compound for 5 days. On day 5, the cells were lysed using 0.5% Nonidet-P and β-galactosidase expression was quantified using the chromogenic substrate o-nitrophenyl-β-D-galactoside (ONGP).
(§2) Data were normalized relative to the maximum response of the cells to the muscarinic agonist carbachol, and the following equation was fitted to the data: • response=minimum+(maximum−minimum)/(1+(EC50/[ligand])) • Where [ligand]=ligand concentration. • % Efficacy was defined as: • (maximum−minimum)/(maximum response of cells to carbachol). • pEC50=−log (EC50). • Where data gave a bell-shaped curve, “maximum” was defined as the highest observed response.

[2] = biological target: T2, m4 muscarinic receptor subtype (Homo sapiens, UniProt P08173); assay: R-SAT assay, muscarinic receptor subtype m4; conditions: transfected NIH-3T3 cells, 5 days; for m4 % Eff: relative to maximum response to carbachol; for EC50: read-out: m4 pEC50 (converted)
T2 construct: expressed in transfected cells; host or cells: NIH-3T3 (ATCC CRL 1658)
T2 sequence (P08173 1-479): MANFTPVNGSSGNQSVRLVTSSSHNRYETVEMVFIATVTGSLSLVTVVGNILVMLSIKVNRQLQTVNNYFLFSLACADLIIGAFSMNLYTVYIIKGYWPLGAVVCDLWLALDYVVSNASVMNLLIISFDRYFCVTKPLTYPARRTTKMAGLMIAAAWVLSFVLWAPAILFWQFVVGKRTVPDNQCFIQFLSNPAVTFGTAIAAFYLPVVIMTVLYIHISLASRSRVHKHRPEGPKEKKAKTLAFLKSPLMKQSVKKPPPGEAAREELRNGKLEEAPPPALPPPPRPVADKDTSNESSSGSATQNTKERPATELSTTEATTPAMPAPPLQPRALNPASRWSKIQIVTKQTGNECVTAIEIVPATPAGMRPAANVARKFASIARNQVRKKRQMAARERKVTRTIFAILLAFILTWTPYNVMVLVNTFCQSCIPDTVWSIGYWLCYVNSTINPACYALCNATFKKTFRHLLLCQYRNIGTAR
Description: as §1, §2

[3] = biological target: T3, m2 muscarinic receptor subtype (Homo sapiens, UniProt P08172); assay: R-SAT assay, muscarinic receptor subtype m2; conditions: transfected NIH-3T3 cells, 5 days, relative to maximum response to carbachol
T3 construct: expressed in transfected cells; host or cells: NIH-3T3 (ATCC CRL 1658)
T3 sequence (P08172 1-466): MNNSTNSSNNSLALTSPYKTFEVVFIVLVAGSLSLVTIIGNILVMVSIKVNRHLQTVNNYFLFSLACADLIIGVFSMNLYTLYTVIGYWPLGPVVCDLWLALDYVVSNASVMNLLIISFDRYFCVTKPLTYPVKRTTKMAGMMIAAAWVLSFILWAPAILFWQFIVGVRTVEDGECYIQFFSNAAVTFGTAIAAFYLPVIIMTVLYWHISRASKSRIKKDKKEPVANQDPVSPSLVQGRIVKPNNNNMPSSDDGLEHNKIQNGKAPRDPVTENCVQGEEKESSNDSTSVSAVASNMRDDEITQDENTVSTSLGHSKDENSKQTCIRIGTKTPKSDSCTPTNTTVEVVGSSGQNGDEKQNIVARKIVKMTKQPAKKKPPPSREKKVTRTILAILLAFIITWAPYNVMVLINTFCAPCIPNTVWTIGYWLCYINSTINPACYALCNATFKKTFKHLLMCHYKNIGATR
Description: (§3) Screening Of Test Compounds In An Assay Using Muscarinic Receptor Subtypes m1, m2, m3, m4 and m5. The m1, m2, m3, m4 and m5 muscarinic receptor subtypes were cloned substantially as described by Bonner et al., Science […] and Bonner et al., Neuron 1:403 (1988). R-SAT assays were carried out substantially as described in U.S. Pat. Nos. 5,707,798, 5,912,132, and 5,955,281, and by Braüner-Osborne & Brann, Eur. J. Pharmacol. 295:93 (1995). NIH-3T3 cells (available from the American Type Culture Collection as ATCC CRL 1658) were transfected with plasmid DNA encoding the m1, m2, m3, m4 or m5 receptors and plasmid DNA encoding β-galactosidase. Transfected cells were grown in the presence of between 1 nM and 40 μM of the test compound for 5 days. On day 5, the cells were lysed using 0.5% Nonidet-P and β-galactosidase expression was quantified using the chromogenic substrate o-nitrophenyl-β-D-galactoside (ONGP).
as §2

[4] = biological target: T4, m3 muscarinic receptor subtype (Homo sapiens, UniProt P20309); assay: R-SAT assay, muscarinic receptor subtype m3; conditions: transfected NIH-3T3 cells, 5 days, relative to maximum response to carbachol
T4 construct: expressed in transfected cells; host or cells: NIH-3T3 (ATCC CRL 1658)
Description: as §3, §2

[5] = biological target: T5, m5 muscarinic receptor subtype (Homo sapiens, UniProt P08912); assay: R-SAT assay, muscarinic receptor subtype m5; conditions: transfected NIH-3T3 cells, 5 days, relative to maximum response to carbachol
T5 construct: expressed in transfected cells; host or cells: NIH-3T3 (ATCC CRL 1658)
T5 sequence (P08912 1-532): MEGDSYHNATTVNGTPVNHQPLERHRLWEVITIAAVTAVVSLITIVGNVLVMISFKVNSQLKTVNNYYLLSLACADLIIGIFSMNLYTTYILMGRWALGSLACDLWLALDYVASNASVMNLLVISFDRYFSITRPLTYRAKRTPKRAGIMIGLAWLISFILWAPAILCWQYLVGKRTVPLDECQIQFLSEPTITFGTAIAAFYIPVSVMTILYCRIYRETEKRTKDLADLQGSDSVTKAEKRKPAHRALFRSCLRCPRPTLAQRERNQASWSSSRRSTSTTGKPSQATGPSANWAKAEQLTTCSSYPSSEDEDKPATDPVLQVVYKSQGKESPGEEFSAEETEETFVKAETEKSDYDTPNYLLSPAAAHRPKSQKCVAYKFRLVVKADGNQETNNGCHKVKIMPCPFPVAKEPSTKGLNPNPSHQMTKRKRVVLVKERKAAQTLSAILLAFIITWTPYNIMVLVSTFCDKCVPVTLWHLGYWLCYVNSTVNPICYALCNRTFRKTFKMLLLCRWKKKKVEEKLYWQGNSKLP
Description: as §3, §2

T4 sequence (P20309 whole entry): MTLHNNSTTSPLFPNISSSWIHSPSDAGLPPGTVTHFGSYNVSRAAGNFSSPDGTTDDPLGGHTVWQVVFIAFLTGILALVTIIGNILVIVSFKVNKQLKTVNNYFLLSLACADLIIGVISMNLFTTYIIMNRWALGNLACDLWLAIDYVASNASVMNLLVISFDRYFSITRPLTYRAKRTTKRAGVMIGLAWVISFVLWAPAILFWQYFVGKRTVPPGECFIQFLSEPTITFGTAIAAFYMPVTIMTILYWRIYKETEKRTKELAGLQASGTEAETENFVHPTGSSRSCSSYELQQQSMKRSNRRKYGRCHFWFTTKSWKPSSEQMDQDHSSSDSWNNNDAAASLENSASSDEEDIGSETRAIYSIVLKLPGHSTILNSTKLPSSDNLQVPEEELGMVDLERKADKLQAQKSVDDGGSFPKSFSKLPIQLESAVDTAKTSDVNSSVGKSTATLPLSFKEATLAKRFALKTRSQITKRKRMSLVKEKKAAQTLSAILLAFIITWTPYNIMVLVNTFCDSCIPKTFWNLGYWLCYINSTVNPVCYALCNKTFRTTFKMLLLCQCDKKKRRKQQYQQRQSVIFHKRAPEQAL

Molecule	m1 pEC50 [1]	m1 % Eff [1] [%]	m4 pEC50 [2]	m4 % Eff [2]	EC50 [1] [µM]	EC50 [2] [µM]	m2 % Eff [3]	m3 % Eff [4]	m5 % Eff [5]
1-[3-(4-Butyl-piperidin-1-yl)-propyl]-5,6-dimethyl-1H-benzoimidazole [Example 81]	6.4	72	<5.5	77%					
2-[3-(4-Butylpiperidin-1-yl)-propyl]-1-methyl-1H-benzimidazole [Example 73]	6.2	37		no response (No response: Efficacy <25% maximum response of carbachol. This level of activity is not considered significantly different to no response.)					
3-[3-(4-Butyl-piperidin-1-yl)-propyl]-benzo[d]isothiazole [Example 93]	7.1	83	6.4	58%			no response (No response: Efficacy <25% maximum response of carbachol. This level of activity is not considered significantly different to no response.)	no response (No response: Efficacy <25% maximum response of carbachol. This level of activity is not considered significantly different to no response.)	no response (No response: Efficacy <25% maximum response of carbachol. This level of activity is not considered significantly different to no response.)
CCCCC1CCN(CCCn2ccc3ccccc32)CC1 [Example 12, 1-(3-(4-n-Butylpiperidine)-1-yl-propyl)-1H-indole]	5.9	59					no response (No response: Efficacy <25% maximum response of carbachol. This level of activity is not considered significantly different to no response.)	no response (No response: Efficacy <25% maximum response of carbachol. This level of activity is not considered significantly different to no response.)	no response (No response: Efficacy <25% maximum response of carbachol. This level of activity is not considered significantly different to no response.)
CCCCC1CCN(CCCc2nc3c([N+](=O)[O-])cccc3[nH]2)CC1 [Example 28, 4-Nitro-2-(3-(4-n-butylpiperidine)-1-yl-propyl)-1H-benzoimidazole]	6.5	38		no response (No response: Efficacy <25% maximum response of carbachol. This level of activity is not considered significantly different to no response.)				no response (No response: Efficacy <25% maximum response of carbachol. This level of activity is not considered significantly different to no response.)	no response (No response: Efficacy <25% maximum response of carbachol. This level of activity is not considered significantly different to no response.)
CC(C)CCC1CCN(CCCn2ncc3ccccc32)CC1 [Example 42, 1-(3-(4-(3-Methyl-butyl)-piperidine)-1-yl-propyl)-1H-indazole]	7.1	51							
CCC=C1CCN(CCCn2ncc3ccccc32)CC1 [Example 44, 1-(3-(4-Propylidene-piperidine)-1-yl-propyl)-1H-indazole]	6.1	72							

The next lines start with results.

m1 pEC50 [1]	m1 % Eff [1] [%]	m4 pEC50 [2]	m4 % Eff [2]	EC50 [1] [µM]	EC50 [2] [µM]	Molecule	m2 % Eff [3]	m3 % Eff [4]	m5 % Eff [5]
	75		41%	0.126	0.501	CCCCC1CCN(CCCc2noc3ccccc23)CC1 [Example 24, 3-(3-(4-n-Butylpiperidine)-1-yl-propyl)-benzo[d]isoxazole]	no response (No response: Efficacy <25% maximum response of carbachol. This level of activity is not considered significantly different to no response.)	no response (No response: Efficacy <25% maximum response of carbachol. This level of activity is not considered significantly different to no response.)	no response (No response: Efficacy <25% maximum response of carbachol. This level of activity is not considered significantly different to no response.)
	66		30%	0.501	1	CCCCC=C1CCN(CCCn2ncc3ccccc32)CC1 [Example 43, 1-(3-(4-Pentylidene-piperidine)-1-yl-propyl)-1H-indazole]			no response (No response: Efficacy <25% maximum response of carbachol. This level of activity is not considered significantly different to no response.)
6.0	45	<5.5	34%			CCCCC1CCN(CCCn2nc(Cl)c3ccccc32)CC1 [Example 65, 1-[3-(4-Butylpiperidin-1-yl)-propyl]-3-chloro-1H-indazole]	no response (No response: Efficacy <25% maximum response of carbachol. This level of activity is not considered significantly different to no response.)		
7.0	71	6.3	96%			CCCCC1CCN(CCCn2c(C)cc3ccccc32)CC1 [Example 77, 1-[3-(4-Butyl-piperidin-1-yl)-propyl]-2-methyl-1H-indole]			
